Like-named read-outs stand apart in the source and are kept apart here.
How the values were obtained:
DDR1 [1] = target: T1, DDR1 (Homo sapiens, UniProt Q08345); assay: LanthaScreen kinase activity assay (Invitrogen), DDR1; assay type: biochemical; conditions: for IC50: LanthaScreen kinase activity assay, read-out: Enzymatic IC50 values DDR1; for activity of analogs against DDR1 kinase activity (in words): removal of the trifluoromethyl group
T1 construct: purchased Invitrogen
Experimental: (§1) IC50 values were determined by Invitrogen using a LanthaScreen kinase activity assay.
(§2) Figure S2. Inhibition of DDR1 and DDR2. (a) IC50 values for DDR1 inhibition determined by using a LanthaScreen kinase activity assay (Invitrogen). (b) IC50 values for DDR2 inhibition determined similarly.

DDR2 = target: T2, DDR2 (Homo sapiens, UniProt Q16832); assay: LanthaScreen kinase activity assay (Invitrogen), DDR2; assay type: biochemical; conditions: read-out: Enzymatic IC50 values DDR2
T2 construct: purchased Invitrogen
T2 sequence (Q16832 22-855): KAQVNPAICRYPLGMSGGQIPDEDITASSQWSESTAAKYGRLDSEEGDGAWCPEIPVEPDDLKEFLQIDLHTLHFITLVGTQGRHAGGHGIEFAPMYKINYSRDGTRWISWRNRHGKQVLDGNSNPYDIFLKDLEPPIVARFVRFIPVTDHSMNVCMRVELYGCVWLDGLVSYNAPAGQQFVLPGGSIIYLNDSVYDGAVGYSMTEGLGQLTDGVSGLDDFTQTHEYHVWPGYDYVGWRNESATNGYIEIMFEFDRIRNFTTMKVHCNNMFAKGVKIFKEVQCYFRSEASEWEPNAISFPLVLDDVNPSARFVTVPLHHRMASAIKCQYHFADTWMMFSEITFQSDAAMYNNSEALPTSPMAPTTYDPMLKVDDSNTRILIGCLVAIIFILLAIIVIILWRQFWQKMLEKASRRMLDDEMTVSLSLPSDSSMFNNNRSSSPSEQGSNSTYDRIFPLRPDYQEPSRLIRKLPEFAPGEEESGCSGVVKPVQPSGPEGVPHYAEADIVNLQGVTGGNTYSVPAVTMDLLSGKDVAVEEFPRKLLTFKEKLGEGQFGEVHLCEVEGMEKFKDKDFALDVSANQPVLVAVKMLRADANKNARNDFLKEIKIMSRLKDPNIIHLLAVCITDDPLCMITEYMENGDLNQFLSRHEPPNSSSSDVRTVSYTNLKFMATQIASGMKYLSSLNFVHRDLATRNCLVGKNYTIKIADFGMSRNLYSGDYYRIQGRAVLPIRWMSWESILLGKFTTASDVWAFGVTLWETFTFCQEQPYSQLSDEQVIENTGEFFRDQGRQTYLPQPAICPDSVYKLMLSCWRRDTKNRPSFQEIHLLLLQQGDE
Experimental: as §1, §2

ABL = tested on: ABL; parameters: method as in PMID 23899692; conditions: quoted for selectivity relative to DDR1; cited from earlier work
DDR1 [2] = target: T1, DDR1; parameters: method as in PMID 23275061; conditions: cited from earlier work
DDR1 [3] = target: T1, DDR1; parameters: method as in PMID 23275061; conditions: cited from earlier work; remark: listed apart in the source

T1 sequence (Q08345 19-913): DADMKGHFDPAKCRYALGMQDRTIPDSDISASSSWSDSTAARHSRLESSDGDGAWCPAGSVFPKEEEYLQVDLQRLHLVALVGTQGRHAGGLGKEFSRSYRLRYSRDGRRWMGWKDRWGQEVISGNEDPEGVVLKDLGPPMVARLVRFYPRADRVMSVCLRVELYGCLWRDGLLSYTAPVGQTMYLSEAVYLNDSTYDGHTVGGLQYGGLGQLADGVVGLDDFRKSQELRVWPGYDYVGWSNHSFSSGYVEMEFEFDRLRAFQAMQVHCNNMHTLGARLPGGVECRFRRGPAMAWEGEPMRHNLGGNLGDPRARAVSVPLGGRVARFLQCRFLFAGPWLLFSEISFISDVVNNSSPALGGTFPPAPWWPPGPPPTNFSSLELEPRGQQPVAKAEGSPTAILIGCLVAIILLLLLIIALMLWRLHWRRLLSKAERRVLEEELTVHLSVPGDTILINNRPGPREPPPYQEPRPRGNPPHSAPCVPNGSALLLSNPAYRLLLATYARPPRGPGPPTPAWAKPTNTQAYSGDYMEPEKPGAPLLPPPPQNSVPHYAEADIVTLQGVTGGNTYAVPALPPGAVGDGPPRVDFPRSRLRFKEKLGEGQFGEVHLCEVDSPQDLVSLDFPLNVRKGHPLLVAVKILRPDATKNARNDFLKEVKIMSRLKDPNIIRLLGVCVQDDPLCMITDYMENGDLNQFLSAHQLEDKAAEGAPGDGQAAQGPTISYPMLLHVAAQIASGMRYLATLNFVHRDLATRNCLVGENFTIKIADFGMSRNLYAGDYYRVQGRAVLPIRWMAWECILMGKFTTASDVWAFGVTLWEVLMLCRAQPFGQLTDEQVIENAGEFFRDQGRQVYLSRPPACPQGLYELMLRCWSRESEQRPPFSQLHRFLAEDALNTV

| Structure (SMILES) | IC50 (DDR1 [1]) [nM] | IC50 (DDR2) [nM] | activity of analogs against DDR1 kinase activity (in words) (DDR1 [1]) | IC50 (ABL) [nM] | EC50 (DDR1 [2]) [nM] | IC50 (DDR1 [3]) [nM] |
| --- | --- | --- | --- | --- | --- | --- |
| CCN1CCN(Cc2ccc(NC(=O)Nc3ccc(C)c(Oc4ccc5c(c4)CC(=O)N5)c3)cc2C(F)(F)F)CC1 [Compound 1] | 262 | 785 | – | – | – | – |
| Cc1ccc(NC(=O)c2ccc(OC3CCN(C)CC3)c(C(F)(F)F)c2)cc1Oc1ccc2c(c1)CC(=O)N2 [Compound 2] | 115 | 338 | – | – | – | – |
| Cc1ccc(NC(=O)c2cc(N3CCN(CCO)CC3)cc(C(F)(F)F)c2)cc1Oc1ccc2c(c1)CC(=O)N2 [Compound 3] | 182 | 546 | – | – | – | – |
| CCN1CCN(c2cc(C(=O)Nc3ccc(C)c(Oc4ccc5c(c4)CC(=O)N5)c3)cc(C(F)(F)F)c2)CC1 [Compound 4] | 150 | 385 | – | – | – | – |
| Cc1ccc(NC(=O)c2cccc(C(C)(C)C#N)c2)cc1Oc1ccc2c(c1)CC(=O)N2 [Compound 5] | 174 | 1020 | – | – | – | – |
| CCN1CCN(Cc2ccc(C(=O)Nc3ccc(C)c(Oc4ccc5c(c4)CC(=O)N5)c3)c(F)c2)CC1 [Compound 6] | > 10000 | > 10000 | inactive | – | – | – |
| CCN1CCN(Cc2ccc(F)c(C(=O)Nc3ccc(C)c(Oc4ccc5c(c4)CC(=O)N5)c3)c2)CC1 [Compound 7] | 8940 | > 10000 | inactive | – | – | – |
| CCN1CCN(Cc2ccc(C(=O)Nc3ccc(C)c(Oc4ccc5c(c4)CC(=O)N5)c3)cc2C(F)(F)F)CC1 [DDR1-IN-1] | – | 413 | – | 1800 | – | – |
| Cc1ccc(C(=O)Nc2ccc(Oc3cc4cnn(C)c4cc3-c3cn[nH]c3)c(F)c2)c(=O)n1-c1ccc(F)cc1 [LY2801653] | – | – | – | – | < 1 | < 1 |

From publication PMC4058747, “Structural Mechanisms Determining Inhibition of the Collagen Receptor DDR1 by Selective and Multi-Targeted Type II Kinase Inhibitors” (Journal of Molecular Biology, 2014)
